Results published in patent US20200054671A1, “TREATMENT OF ANXIETY DISORDER AND AUGMENTATION OF ANTI-ANXIETY INTERVENTIONS BY ADMINISTRATION OF NOBLE GAS CONTAINING MIXTURES” (NOBILIS THERAPEUTICS, INC., priority 2016, published 2020).
Where “and” joins values, the source holds several entries; their conditions need not be identical. Equal entries are not always repeated.

What was measured:
Format in all cases: in vivo, human
[1] = tested on: patients with panic disorder; test: Hospital Anxiety and Depression Scale, anxiety subscale (HADS_T), open clinical trial of xenon inhalation; details: for HADS-T, V6 − V1, mean paired difference: after 6 sessions vs baseline; for HADS_T total score: after 3 sessions (V3)
Description: (§1) This investigator-initiated study was performed under a prospective clinical trial protocol approved by the Institute of Mental Health and Addictology, which is accredited by the Ministry of Health of the Russian Federation to conduct clinical trials (#57689). Study conduct was in compliance with all ethical standards and good clinical practice. Ninety outpatients with a diagnosis of “panic disorder» (F41.0) according to ICD-10 were enrolled through the Institute of Mental Health and Addictology. Five patients dropped out of the study due to minor side effects, predominantly lightheadedness and headaches, and 4 patients dropped out of the study for unspecified reasons. As the intention to treat analysis was not utilized due to the open label design of the study, 81 patients with PD (49 women and 32 men), mean age was 35.2 years (range […]) were studied. Patients were randomized into 2 groups: with “pure” PD (group 1) and “comorbid” PD, when it was co-diagnosed with other mental illnesses (group 2). All patients with isolated PD (Group 1, n=42) received monotherapy with xenon at the aforementioned schedule, while the majority of patients (94.9%) with PD and comorbid conditions, which were predominantly depression (group 2, n=39), in addition to xenon administration continued treatment for comorbid psychiatric disorders, which mainly consisted of antidepressants (SSRIs and SNRIs). In these patients, the reason for xenon treatment was the increase in the frequency and severity of panic attacks despite ongoing treatment with stable pharmacotherapy of at least 3 to 6 months' duration.
(§2) Administration of xenon was performed through inhalation of xenon-oxygen mixtures that were escalated from 15%/85% to 30%/70% with titration increments of 5% per session. Each patient in the study underwent between 6 and 7 treatments with xenon-oxygen mixture. The first three sessions were carried out daily and from session 4 onward—every other day. The selected dosing regime and the composition of the gas mixtures were based on the historical evidence of safety of subanesthetic use of xenon in imaging.
(§3) Medical grade xenon (“medksenon»®, 99.9999%, manufacturer: Atommedcenter, Moscow, Russia) and medical grade oxygen in separate containers were admixed. Mixing and administration of gases in preset concentration and volume was accomplished with the use of the medical device MAGi-AMTS1, which enables the operator to adjust the concentration of xenon in the gas mixture, and which contains the electronic flow meter with a software module that allows for such adjustments. Administration of xenon-oxygen mixture to the patient was carried out via a face mask. Patients were asked to slowly inhale, holding breath for 5 to 10 seconds; exhale into the loop and after 35-40 seconds exhale outside the contour and breath in the new portion of gas mixture. Xenon inhalation lasted from 2.5 to 4 minutes, and the xenon consumption was capped at 3.0 liters per procedure. The patients were assessed subjectively by the provider, while the vital signs (pulse, blood pressure, oxygen saturation) were continuously monitored.
Patients were evaluated after each xenon inhalation and at 30 and 180 days after completion of treatment. To this end, we employed clinical psychopathological and clinical catamnestic methods, and psychometric scales that are widely used internationally to assess the treatment of mental disorders. […]

[2] = tested on: patients with panic disorder; test: Zung Self-Rating Anxiety Scale (SAS)
Description: as §1, §2, §3
(§4) Patients were evaluated after each xenon inhalation and at 30 and 180 days after completion of treatment. To this end, we employed clinical psychopathological and clinical catamnestic methods, and psychometric scales that are widely used internationally to assess the treatment of mental disorders. Scale Assessment, Zung Self-Rating Anxiety Scale (SAS) was performed prior to starting therapy (V1), and at 1 and 6 months after treatment. According to this scale, SAS index of less than 45 points corresponds to the normal value, 45-59—to mild-to-moderate degree of anxiety, 60-74—to high degree of anxiety, more than 75—to an extremely high-level of anxiety. […]

[3] = tested on: patients with panic disorder; test: Frequency of major and minor panic attacks; details: for The frequency of major panic attacks 6 months after treatment, Mean / The frequency of major panic attacks 6 months after treatment, Median / Changes Minor Panic Attacs_V6_V1, Mean / Changes Minor Panic Attacs_V6_V1, Median / Changes_Major Panic Attacs_V6_V1, Mean / Changes_Major Panic Attacs_V6_V1, Median: per month; for Changes Minor Panic Attacs_V6_V1, Mean / Changes Minor Panic Attacs_V6_V1, Median / Changes_Major Panic Attacs_V6_V1, Mean / Changes_Major Panic Attacs_V6_V1, Median: vs before treatment
Description: as §1, §2, §3, §4

[4] = tested on: patients with panic disorder; test: Hospital Anxiety and Depression Scale, depression subscale (HADS_D); details: for HADS_D: patients with “clinically severe depression”: end of the active phase of treatment
Description: as §1, §2
(§5) Medical grade xenon (“medksenon»®, 99.9999%, manufacturer: Atommedcenter, Moscow, Russia) and medical grade oxygen in separate containers were admixed. […] The patients were assessed subjectively by the provider, while the vital signs (pulse, blood pressure, oxygen saturation) were continuously monitored.
Patients were evaluated after each xenon inhalation and at 30 and 180 days after completion of treatment. […]

[5] = tested on: patients with panic disorder; test: Tolerability of xenon therapy in the clinical trial; details: mainly headache and dizziness
Description: This investigator-initiated study was performed under a prospective clinical trial protocol approved by the Institute of Mental Health and Addictology, which is accredited by the Ministry of Health of the Russian Federation to conduct clinical trials (#57689). Study conduct was in compliance with all ethical standards and good clinical practice. Ninety outpatients with a diagnosis of “panic disorder» (F41.0) according to ICD-10 were enrolled through the Institute of Mental Health and Addictology. Five patients dropped out of the study due to minor side effects, predominantly lightheadedness and headaches, and 4 patients dropped out of the study for unspecified reasons. As the intention to treat analysis was not utilized due to the open label design of the study, 81 patients with PD (49 women and 32 men), mean age was 35.2 years (range […]) were studied. Patients were randomized into 2 groups: with “pure” PD (group 1) and “comorbid” PD, when it was co-diagnosed with other mental illnesses (group 2). […]
as §5

[Xe] [xenon]
HADS-T, V6 − V1, mean paired difference ([1]; Group 1 («pure» PD, n=42, xenon monotherapy)): −11.214
HADS_T total score ([1]; Group 1): 13.3
HADS-T, V6 − V1, mean paired difference ([1]; Group 2 («comorbid» PD, n=39)): −11.436
HADS_T total score ([1]; Group 2): 13.3
HADS_T overall score category ([1]; both groups, end of treatment (V6)): norm
Zung SAS after 1 month − V1, mean paired difference ([2]; Group 1 (n=42)): −36.131
Zung SAS after 6 months − V1, mean paired difference ([2]; Group 1 (n=42)): −38.214
SAS total score ([2]; Group 1, one month after treatment): 36.5 points
SAS total score ([2]; Group 1, study follow up (6 months)): 34.5
Zung SAS after 1 month − V1, mean paired difference ([2]; Group 2 (n=39)): −17.308
Zung SAS after 6 months − V1, mean paired difference ([2]; Group 2 (n=39)): −16.154
SAS total score ([2]; Group 2, one month after treatment): 46.8 points
SAS total score ([2]; Group 2, study follow up (6 months)): 47.9
The frequency of minor panic attacks 6 months after treatment, Mean ([3]; Total (n = 81)): .6 times/month
The frequency of minor panic attacks 6 months after treatment, Median ([3]; Total (n = 81)): .0 times/month
The frequency of major panic attacks 6 months after treatment, Mean ([3]; Total (n = 81)): .0
The frequency of major panic attacks 6 months after treatment, Median ([3]; Total (n = 81)): .0
Changes Minor Panic Attacs_V6_V1, Mean ([3]; Total (n = 81)): −42.7
Changes Minor Panic Attacs_V6_V1, Median ([3]; Total (n = 81)): −55.0
Changes_Major Panic Attacs_V6_V1, Mean ([3]; Total (n = 81)): −9.6
Changes_Major Panic Attacs_V6_V1, Median ([3]; Total (n = 81)): −7.0
“major” panic attacks 6 months after treatment ([3]; both groups): absent
panic attacks after the 6th treatment ([3]; conclusion from HADS_T, CGI-I, CGI-S): complete cessation of panic attacks
The frequency of minor panic attacks 6 months after treatment, Mean ([3]; «Comorbid PD» (n = 39)): 1 times/month and 1.0 times/month
The frequency of minor panic attacks 6 months after treatment, Median ([3]; «Comorbid PD» (n = 39)): .0 times/month
The frequency of major panic attacks 6 months after treatment, Mean ([3]; «Comorbid PD» (n = 39)): .0
The frequency of major panic attacks 6 months after treatment, Median ([3]; «Comorbid PD» (n = 39)): .0
Changes Minor Panic Attacs_V6_V1, Mean ([3]; «Comorbid PD» (n = 39)): −40.7
Changes Minor Panic Attacs_V6_V1, Median ([3]; «Comorbid PD» (n = 39)): −40.0
Changes_Major Panic Attacs_V6_V1, Mean ([3]; «Comorbid PD» (n = 39)): −11.7
Changes_Major Panic Attacs_V6_V1, Median ([3]; «Comorbid PD» (n = 39)): −12.0
The frequency of minor panic attacks 6 months after treatment, Median ([3]; «Pure PD» (n = 42)): .0 times/month
The frequency of major panic attacks 6 months after treatment, Mean ([3]; «Pure PD» (n = 42)): .0
The frequency of major panic attacks 6 months after treatment, Median ([3]; «Pure PD» (n = 42)): .0
Changes Minor Panic Attacs_V6_V1, Mean ([3]; «Pure PD» (n = 42)): −44.5
Changes Minor Panic Attacs_V6_V1, Median ([3]; «Pure PD» (n = 42)): −55.0
Changes_Major Panic Attacs_V6_V1, Mean ([3]; «Pure PD» (n = 42)): −7.7
Changes_Major Panic Attacs_V6_V1, Median ([3]; «Pure PD» (n = 42)): −3.0
HADS_D: patients in whom “clinically severe depression” was absent ([4]; group 1, after 3 xenon treatments): 90.5%
HADS_D: patients with “clinically severe depression” ([4]; group 1): 2.4%
HADS_D: patients in whom “clinically severe depression” was present ([4]; group 2, after 3 xenon treatments): 82.1%
HADS_D: patients with “clinically severe depression” ([4]; group 2): 46.2%
patients dropping out from the study due to side effects ([5]; 5 patients): 5.8%
tolerability of xenon therapy ([5]; side effects, were rare): generally well tolerated
